Holding throughout (assay type): cell-based
The test system of one assay is E. faecalis. In words: MIC susceptibility testing, vancomycin resistant Enterococci (E. faecalis). Conditions: E. faecalis 9758512, vancomycin resistant. Here is the method: (§1) Susceptibility testing with the exception of Streptococcus pneumoniae was performed by two-fold serial dilutions in Mueller Hinton Broth supplemented with 50 μg/mL Ca^2+. Susceptibility testing of S. pneumoniae was performed by two-fold serial dilutions in Brain-Heart-Infusion Broth supplemented with 50 μg/mL Ca^2+.

A further assay relates to E. faecium. Put plainly: MIC susceptibility testing, vancomycin resistant Enterococci (E. faecium). As to the method: as §1
For a further assay, the system named is Streptococcus pneumoniae. Put plainly: microbe, parasite or virus in culture. As to the method:
as §1

Converted amounts (≈) assume the structure as drawn.

In the case of `CC[C@H](C)[C@@H]1NC(=O)[C@@H]2NC(=O)[C@H](CC(C)C)NC(=O)[C@H](NC(=O)[C@@H]3CSC[C@@H](N)C(=O)N[C@@H](CO)C(=O)NCC(=O)N[C@@H](Cc4c[nH]c5ccccc45)C(=O)N[C@@H](C(C)C)C(=O)N3)[C@H](C)SC[C@H](NC(=O)[C@H](CCC(=O)O)NC1=O)C(=O)NCC(=O)N[C@H]1C(=O)N[C@@H](CC(C)C)C(=O)N[C@@H](C(C)C)C(=O)N[C@@H](CS[C@H]2C)C(=O)N[C@@H](C)C(=O)N[C@H](C(=O)NCc2cc(Cl)cc(Cl)c2)CS[C@H]1C` [Example 1, Deoxyactagardine B (3,5-dichlorobenzylamine)monocarboxamide], the MIC in the assay with E. faecalis was 8 µg/mL (≈ 3.94 µM); with E. faecium (E. faecium 7662769, vancomycin resistant) it was 8 µg/mL (≈ 3.94 µM); against E. faecium (E. faecium 7860190, vancomycin resistant) it was 4 to 8 µg/mL; against E. faecium (E. faecium 9710577, vancomycin resistant) it was 8 µg/mL (≈ 3.94 µM); in the assay with Streptococcus pneumoniae (isolate QB37301, penicillin Resistant) it was 2 µg/mL (≈ 0.984 µM); against Streptococcus pneumoniae (isolate QB37302, penicillin Resistant), 1 µg/mL (≈ 0.492 µM). The MIC against Streptococcus pneumoniae (isolate QB37303, penicillin Intermediate) is 0.25 µg/mL (≈ 0.123 µM); in the assay with Streptococcus pneumoniae (isolate QB37304, penicillin Susceptible) it was 0.25 µg/mL (≈ 0.123 µM); in the assay on Streptococcus pneumoniae (isolate QB37305, penicillin Susceptible), 1 µg/mL (≈ 0.492 µM); in the assay on Streptococcus pneumoniae (isolate QB37306, penicillin Susceptible), 0.25 to 0.5 µg/mL; against Streptococcus pneumoniae (isolate QB37307, penicillin Intermediate), 0.5 to 1 µg/mL; against Streptococcus pneumoniae (isolate QB37308, penicillin Susceptible), 0.25 to 0.5 µg/mL. The MIC against Streptococcus pneumoniae (isolate QB37309, penicillin Resistant) turned out to be 2 µg/mL (≈ 0.984 µM); against Streptococcus pneumoniae (isolate QB37310, penicillin Resistant), 0.25 µg/mL (≈ 0.123 µM); against Streptococcus pneumoniae (isolate QB37311, penicillin Resistant), 0.03 µg/mL (≈ 0.0148 µM); against Streptococcus pneumoniae (isolate QB37312, penicillin Intermediate) it was 0.5 µg/mL (≈ 0.246 µM); against Streptococcus pneumoniae (isolate QB37313, penicillin Susceptible), 0.03 µg/mL (≈ 0.0148 µM); with Streptococcus pneumoniae (isolate QB37314, penicillin Resistant), 1 µg/mL (≈ 0.492 µM). For the same compound, the MIC against Streptococcus pneumoniae (isolate QB37315, penicillin Susceptible) was 0.25 µg/mL (≈ 0.123 µM); against Streptococcus pneumoniae (isolate QB37316, penicillin Susceptible), 2 µg/mL (≈ 0.984 µM); with Streptococcus pneumoniae (isolate QB37317, penicillin Susceptible), 0.25 µg/mL (≈ 0.123 µM); in the assay with Streptococcus pneumoniae (isolate QB37318, penicillin Resistant), 0.25 µg/mL (≈ 0.123 µM); with Streptococcus pneumoniae (isolate QB37319, penicillin Resistant), 1 µg/mL (≈ 0.492 µM); against Streptococcus pneumoniae (isolate QB37320, penicillin Intermediate), 1 µg/mL (≈ 0.492 µM).

The values are drawn from patent publication US8729031B2, “Compounds” (priority 2009, dated 2014).
